Test results: PubChem BioAssay (NCI)
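The compound was tested at five concentrations on cells cultured in 96-well plates, with a 48-hour exposure period. Abbreviation: GI50, concentration required for 50% inhibition of growth. TGI: total growth inhibition.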

Tests used:
Assay in all cases: NCI anticancer screen, dose series, 48 h
[1] = test system: KM12 colon
[2] = test system: LOX IMVI melanoma
[3] = test system: HCT-15 colon
[4] = test system: SK-MEL-2 melanoma
[5] = test system: OVCAR-8 ovarian
[6] = test system: NCI-H23 lung
[7] = test system: HOP-62 NSCLC
[8] = test system: IGROV1 ovarian
[9] = test system: MALME-3M melanoma
[10] = test system: CAKI-1 renal

| Compound | TGI [1] | TGI [2] | TGI [3] | TGI [4] | TGI [5] | TGI [6] | TGI [7] | TGI [8] | TGI [9] | GI50 [2] | GI50 [3] | GI50 [5] | GI50 [7] | GI50 [8] | GI50 [10] | TGI [10] | GI50 [1] | GI50 [4] | GI50 [6] | GI50 [9] |
| --- | --- | --- | --- | --- | --- | --- | --- | --- | --- | --- | --- | --- | --- | --- | --- | --- | --- | --- | --- | --- |
| COc1ccc(/C=C/NC=O)cc1 | > 100 µM | > 100 µM | > 100 µM | > 100 µM | > 100 µM | > 100 µM | > 100 µM | > 100 µM | > 100 µM | – | – | – | – | – | – | – | – | – | – | – |
| C1=Nc2ccccc2C=Nc2ccccc2C=Nc2ccccc2C=Nc2ccccc21.[Cl-].[Pt+2] | – | > 100 µM | 83.1 µM | – | > 100 µM | – | 45.6 µM | 49.5 µM | – | 29.9 µM | 22.3 µM | 17.5 µM | 15.1 µM | 18.8 µM | 31.4 µM | 62.5 µM | – | – | – | – |
| COc1ccc(N(C)c2c3ccccc3nc3[nH]c4ccccc4c23)cc1 | 1.24 µM | 1.58 µM | 9.3 µM | 26.1 µM | 7.42 µM | 2.04 µM | 1.79 µM | 13.5 µM | – | 0.55 µM | 2.29 µM | 0.798 µM | 0.407 µM | 2.19 µM | 0.774 µM | 3.07 µM | 0.296 µM | 6.16 µM | 0.702 µM | – |
| O=[N+]([O-])c1ccc2nc3ccccc3cc2c1 | – | 6.91 µM | 10 µM | 27.8 µM | 2.58 µM | 6.22 µM | 6.16 µM | 6.8 µM | 13.3 µM | – | – | – | – | – | – | 0.0944 µM | – | – | – | – |
| COc1ccc(-c2csc(NC(=O)c3cc(O)c(O)c(O)c3)n2)cc1 | > 33.3 µM | > 33.3 µM | > 33.3 µM | – | > 33.3 µM | > 33.3 µM | > 33.3 µM | 32.6 µM | > 33.3 µM | 6.57 µM | 6.63 µM | 7.52 µM | 8.92 µM | 6.69 µM | 2.61 µM | > 33.3 µM | 13.2 µM | – | 11.2 µM | 11.1 µM |
| CNCCCNCCCN1C(=O)c2ccc3c4c(ccc(c24)C1=O)C(=O)N(CCCNCc1ccccc1OC)C3=O | 3.36 µM | 9.75 µM | 12.2 µM | 3.97 µM | 9.43 µM | 4.12 µM | 4.44 µM | 6.04 µM | 1.96 µM | 1.52 µM | 2.36 µM | 0.797 µM | 1.24 µM | 1.45 µM | – | – | 1.18 µM | 1.75 µM | 1.26 µM | 0.633 µM |
| C=C1C[C@@]2(C)C(CC[C@]3(C)C2CC=C2C4CC(C)(C)C[C@@H](OC(=O)/C(C)=C\C)[C@]4(C(=O)O)CC[C@]23C)C(C)(C)C1=O (stereo partly specified) | 15.9 µM | – | 7.88 µM | 24.4 µM | 27.5 µM | 11.1 µM | 22.3 µM | 10.1 µM | 15.6 µM | – | 2.23 µM | 3.75 µM | 3.43 µM | 3.05 µM | 1.88 µM | 4.72 µM | 3.84 µM | 5.93 µM | 2.87 µM | 3.89 µM |
| NC(CC1=CCC=CC1)C(=O)O (stereo unspecified) | > 100 µM | > 100 µM | > 100 µM | > 100 µM | > 100 µM | > 100 µM | > 100 µM | > 100 µM | – | – | – | – | – | – | – | > 100 µM | – | – | – | – |
| Cc1cccc(C)c1NC(=O)CCc1n[nH]c(=S)o1 | > 100 µM | – | > 100 µM | – | > 100 µM | > 100 µM | > 100 µM | > 100 µM | > 100 µM | – | – | – | – | – | – | > 100 µM | – | – | – | – |
| S=c1nc(N2CCCCC2)ss1 | 33.9 µM | – | 62.6 µM | 37.7 µM | > 100 µM | > 100 µM | 64.6 µM | 58.5 µM | 35.6 µM | – | – | – | – | – | – | > 100 µM | – | – | – | – |
| COc1ccc(-c2c(N)[n+]([O-])c3ccccc3[n+]2[O-])cc1OC | > 100 µM | – | > 100 µM | > 100 µM | > 100 µM | > 100 µM | > 100 µM | > 100 µM | > 100 µM | – | – | – | – | – | – | > 100 µM | – | – | – | – |
| CC1C(=O)O[C@H]2C1CC[C@@]1(C)[C@H](O)CC[C@@]13C[C@]2(O)OO3 (stereo partly specified) | – | > 100 µM | > 100 µM | – | > 100 µM | > 100 µM | > 100 µM | > 100 µM | > 100 µM | – | – | – | – | – | – | > 100 µM | – | – | – | – |
| COc1ccc(-c2cc(=O)c3c(OC)c(OC)c(OC)c(OC)c3o2)c(OC)c1 | – | 34.8 µM | 86.1 µM | 39.2 µM | > 100 µM | 58.5 µM | 70.6 µM | > 100 µM | > 100 µM | – | – | – | – | – | – | 81.9 µM | – | – | – | – |
| O=C1CCS/C(=N\S(=O)(=O)c2ccc(N3N=C4c5ccccc5CC4C3c3cccs3)cc2)N1C(=O)c1ccccc1 (stereo unspecified) | 83.1 µM | 23.8 µM | 31.3 µM | > 100 µM | 17.5 µM | 41.5 µM | > 100 µM | 29.9 µM | – | 7.61 µM | 15.1 µM | 0.816 µM | 31.1 µM | 14.5 µM | 26.8 µM | 86.6 µM | 29.4 µM | 29.4 µM | 17.2 µM | – |
| O=C(CC1C=CCS1(=O)=O)NCc1ccccc1 (stereo unspecified) | > 100 µM | > 100 µM | > 100 µM | – | > 100 µM | > 100 µM | > 100 µM | > 100 µM | – | – | – | – | – | – | – | > 100 µM | – | – | – | – |
| CCOC(=O)/C(=C\c1ccc[nH]1)C(=O)c1ccccc1 | > 100 µM | > 100 µM | > 100 µM | > 100 µM | > 100 µM | > 100 µM | > 100 µM | – | > 100 µM | – | – | – | – | – | – | > 100 µM | – | – | – | – |
| CC/C=C/c1cc2cc[nH]c2c2c1C(C)C[C@@H]2C (stereo partly specified) | 40.8 µM | 31 µM | 82.5 µM | – | 66.2 µM | 58.6 µM | – | > 100 µM | > 100 µM | – | – | – | – | – | – | > 100 µM | – | – | – | – |
| COc1ccccc1-c1cc(=O)c2ccc(OC)c(OC)c2o1 | – | > 100 µM | > 100 µM | > 100 µM | > 100 µM | > 100 µM | > 100 µM | > 100 µM | > 100 µM | – | – | – | – | – | – | > 100 µM | – | – | – | – |
| CSc1ncnc2c1CCN2 | > 100 µM | > 100 µM | > 100 µM | > 100 µM | > 100 µM | > 100 µM | > 100 µM | > 100 µM | > 100 µM | > 100 µM | – | > 100 µM | – | > 100 µM | – | – | > 100 µM | > 100 µM | > 100 µM | > 100 µM |
| O=C1CS/C(=N\S(=O)(=O)c2ccc(N3N=C4c5ccccc5CC4C3c3ccc(Cl)cc3)cc2)N1c1ccccc1 (stereo unspecified) | 58.6 µM | 49.1 µM | > 100 µM | > 100 µM | > 100 µM | – | > 100 µM | > 100 µM | – | 23.4 µM | 34.8 µM | 34.6 µM | 56.8 µM | 37.8 µM | 35.8 µM | > 100 µM | 22 µM | > 100 µM | – | – |
| CCC(C(=O)c1ccccc1)C(CCCC(=O)Nc1c(C)cccc1C)N=O (stereo unspecified) | > 100 µM | – | > 100 µM | > 100 µM | > 100 µM | > 100 µM | > 100 µM | > 100 µM | > 100 µM | – | – | – | – | – | – | > 100 µM | – | – | – | – |
| Cc1ccc2c(c1)CNc1ccc(C)cc1CN2 | > 100 µM | > 100 µM | > 100 µM | > 100 µM | > 100 µM | > 100 µM | > 100 µM | > 100 µM | – | – | – | – | – | – | – | > 100 µM | – | – | – | – |
| O=C(NCc1ccncc1)C1COc2cc(-c3cc(=O)c4ccccc4o3)ccc2O1 (stereo unspecified) | > 100 µM | > 100 µM | > 100 µM | > 100 µM | > 100 µM | > 100 µM | > 100 µM | > 100 µM | > 100 µM | – | – | – | – | – | – | – | – | – | – | – |
| COc1ccc2c(c1)C1(C(=O)N2)C(C#N)=C(c2ccccc2)Nc2c1c(-c1ccccc1)nn2-c1ccccc1 (stereo unspecified) | 7.26 µM | 3.51 µM | 26.8 µM | 21.8 µM | 12.7 µM | 7.51 µM | 7.07 µM | 16.4 µM | 3.84 µM | 1.81 µM | 11 µM | 3.54 µM | 2.28 µM | 3.57 µM | – | – | 2.66 µM | 6.47 µM | 2.51 µM | 1.73 µM |
| CC(C)C(=O)/C=C/c1ccc(Cl)c(Cl)c1 | 29 µM | – | – | 31.9 µM | 45.8 µM | 36.5 µM | – | 40.4 µM | – | – | – | – | – | – | – | – | – | – | – | – |
| Cc1ccc(Oc2ccc([N+](=O)[O-])cc2[N+](=O)[O-])c(C)c1 | – | – | > 100 µM | > 100 µM | > 100 µM | > 100 µM | > 100 µM | > 100 µM | > 100 µM | – | – | – | – | – | – | > 100 µM | – | – | – | – |
| Cc1cc(=O)oc2cc(OS(C)(=O)=O)ccc12 | – | > 100 µM | > 100 µM | > 100 µM | > 100 µM | > 100 µM | > 100 µM | > 100 µM | > 100 µM | – | – | – | – | – | – | > 100 µM | – | – | – | – |
| N#Cc1c(N)nc(N2CCOCC2)c(C#N)c1-c1ccccc1Cl | – | > 100 µM | > 100 µM | > 100 µM | > 100 µM | > 100 µM | > 100 µM | 41.7 µM | – | 56 µM | 41.4 µM | 42 µM | > 100 µM | 14.7 µM | 32.4 µM | > 100 µM | – | 41.9 µM | 37.7 µM | – |
